Measurements as given in ChEMBL document CHEMBL1201862, “PubChem BioAssay data set” (2004).
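Tested at 5 concentrations; 48 h exposure; 96-well plates; endpoints linearly interpolated, else capped at highest concentration. GI50: concentration for 50% inhibition of growth.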 Calls of active or inactive are those of the source. No stated cut-off is given here; in the data, active = GI50 up to about 1.1 µM and inactive = higher.

Assays:
Experiment in all cases: inhibition of tumour cell growth, NCI panel, 48 h
M14 = test system: M14
SF-539 = test system: SF-539
OVCAR-4 = test system: OVCAR-4
HT-29 = test system: HT-29
Hs-578T = test system: Hs-578T
SNB-19 = test system: SNB-19
OVCAR-5 = test system: OVCAR-5
RXF 393 = test system: RXF 393
HOP-62 = test system: HOP-62
MCF7 = test system: MCF7
Malme-3M = test system: Malme-3M
MOLT-4 = test system: MOLT-4
NCI-H226 = test system: NCI-H226
DU-145 = test system: DU-145
HCC 2998 = test system: HCC 2998
HOP-92 = test system: HOP-92
NCI/ADR-RES = test system: NCI/ADR-RES
EKVX = test system: EKVX
TK-10 = test system: TK-10
K562 = test system: K562

SMILES | GI50 (M14) | GI50 (SF-539) | GI50 (OVCAR-4) | GI50 (HT-29) | GI50 (Hs-578T) | GI50 (SNB-19) | GI50 (OVCAR-5) | GI50 (RXF 393) | GI50 (HOP-62) | GI50 (MCF7) | GI50 (Malme-3M) | GI50 (MOLT-4) | GI50 (NCI-H226) | GI50 (DU-145) | GI50 (HCC 2998) | GI50 (HOP-92) | GI50 (NCI/ADR-RES) | GI50 (EKVX) | GI50 (TK-10) | GI50 (K562)
CCn1cc(C(=O)O)c(=O)c2cc(F)c(N3CCN(CN4C(=O)/C(=N\c5ncc(Cc6cc(OC)c(OC)c(OC)c6)c(N)n5)c5cc(Cl)ccc54)CC3)cc21 | > 100 µM (inactive) | > 100 µM (inactive) | > 100 µM (inactive) | > 100 µM (inactive) | > 100 µM (inactive) | > 100 µM (inactive) | > 100 µM (inactive) | > 100 µM (inactive) | > 100 µM (inactive) | 82 µM (inactive) | > 100 µM (inactive) | 0.38 µM (active) | > 100 µM (inactive) | > 100 µM (inactive) | 42.2 µM (inactive) | > 100 µM (inactive) | > 100 µM (inactive) | > 100 µM (inactive) | 83 µM (inactive) | 15.9 µM (inactive)
CC1(C)C2CCC1(CS(=O)(=O)Nc1ccccc1)C(=O)C2 (stereo not given) | > 100 µM (inactive) | > 100 µM (inactive) | > 100 µM (inactive) | > 100 µM (inactive) | > 100 µM (inactive) | > 100 µM (inactive) | > 100 µM (inactive) | > 100 µM (inactive) | > 100 µM (inactive) | > 100 µM (inactive) | > 100 µM (inactive) | > 100 µM (inactive) | > 100 µM (inactive) | > 100 µM (inactive) | > 100 µM (inactive) | > 100 µM (inactive) | > 100 µM (inactive) | > 100 µM (inactive) | > 100 µM (inactive) | > 100 µM (inactive)
CSc1cc(N)ccc1/N=N/c1ccc(S(N)(=O)=O)cc1 | 38.1 µM (inactive) | 31.5 µM (inactive) | 27.5 µM (inactive) | 30.3 µM (inactive) | 23.5 µM (inactive) | 55.3 µM (inactive) | 45 µM (inactive) | 30.5 µM (inactive) | 29.4 µM (inactive) | 37.3 µM (inactive) | 24.7 µM (inactive) | 31.3 µM (inactive) | 13.2 µM (inactive) | 34.9 µM (inactive) | 53.6 µM (inactive) | 21.8 µM (inactive) | 29.6 µM (inactive) | 31 µM (inactive) | 29.4 µM (inactive) | 38.1 µM (inactive)
COC(=O)c1ccccc1CC1Cc2cc3c(cc2C1=O)CCC3 (stereo not given) | 10.4 µM (inactive) | 16.8 µM (inactive) | 19.2 µM (inactive) | 8.71 µM (inactive) | 19.6 µM (inactive) | 21.4 µM (inactive) | 26.5 µM (inactive) | 2.56 µM (inactive) | 17.1 µM (inactive) | 14.6 µM (inactive) | 7.14 µM (inactive) | 5.11 µM (inactive) | 18.5 µM (inactive) | 27.7 µM (inactive) | > 41.1 µM (inactive) | 13.7 µM (inactive) | 3.05 µM (inactive) | 25.8 µM (inactive) | 16.5 µM (inactive) | 3.69 µM (inactive)
NC(Cc1cccnn1)C(=O)O (stereo not given) | > 100 µM (inactive) | > 100 µM (inactive) | > 100 µM (inactive) | > 100 µM (inactive) | > 100 µM (inactive) | > 100 µM (inactive) | > 100 µM (inactive) | > 100 µM (inactive) | > 100 µM (inactive) | > 100 µM (inactive) | > 100 µM (inactive) | > 100 µM (inactive) | > 100 µM (inactive) | > 100 µM (inactive) | > 100 µM (inactive) | > 100 µM (inactive) | > 100 µM (inactive) | > 100 µM (inactive) | > 100 µM (inactive) | > 100 µM (inactive)
COc1ccc(C2(CC(C)O)SCCCS2)cc1 (stereo not given) | > 100 µM (inactive) | > 100 µM (inactive) | > 100 µM (inactive) | > 100 µM (inactive) | > 100 µM (inactive) | > 100 µM (inactive) | > 100 µM (inactive) | > 100 µM (inactive) | > 100 µM (inactive) | > 100 µM (inactive) | > 100 µM (inactive) | 42 µM (inactive) | > 100 µM (inactive) | > 100 µM (inactive) | > 100 µM (inactive) | > 100 µM (inactive) | > 100 µM (inactive) | > 100 µM (inactive) | > 100 µM (inactive) | > 100 µM (inactive)
CCCCCC(=O)OC[n+]1ccc2c(C)c3[nH]c4ccc(OC)cc4c3c(C)c2c1 | 0.622 µM (active) | 0.238 µM (active) | 0.811 µM (active) | 0.0897 µM (active) | 1.11 µM (active) | 0.189 µM (active) | 0.556 µM (active) | 0.208 µM (active) | 0.586 µM (active) | 0.225 µM (active) | 1.37 µM (inactive) | 0.0419 µM (active) | 0.276 µM (active) | 0.505 µM (active) | 0.543 µM (active) | 1.2 µM (inactive) | 0.213 µM (active) | 0.925 µM (active) | 2.55 µM (inactive) | 0.0632 µM (active)
CC(=O)O[C@@H]1C(C2CCCCC2)C=[N+]([O-])O[C@@H]1OC1CCCC1(c1ccccc1)c1ccccc1 (stereo not given in full) | 5.31 µM (inactive) | 3.94 µM (inactive) | 7.98 µM (inactive) | 2.09 µM (inactive) | 11 µM (inactive) | 16.5 µM (inactive) | 15.8 µM (inactive) | 2.58 µM (inactive) | 14.9 µM (inactive) | 3.18 µM (inactive) | 2.99 µM (inactive) | 3.32 µM (inactive) | 16.6 µM (inactive) | 10.9 µM (inactive) | 8.57 µM (inactive) | 10.1 µM (inactive) | 10.2 µM (inactive) | 15.7 µM (inactive) | 14.5 µM (inactive) | 3.61 µM (inactive)
